Reference: patent US11241442B2, “Methods of use for TRP channel antagonist-based combination cancer therapies” (President and Fellows of Harvard College, priority 2017, dated 2022)

Experiments:
Format in all cases: cell-based
HCC1569 spheroids = assay: [H2O2]i by Hyper-2 in HCC1569 spheroids; settings: AP-18, 300 nM A-967079 or 5 mM NAC
Protocol: For the measurement of [H2O2]i levels in MCF-10A acini and HCC1569 spheroids, cells were transduced with a lentiviral vector encoding Hyper-2 or Hyper-2 (C199S). The Hyper-2 fluorescence was measured at 37° C. in HEPES-buffered saline (HBS) containing the following (in mM): 150 NaCl, 6 KCl, 1.2 MgSO4, 2 CaCl2, 11.5 glucose, and 25 HEPES (pH adjusted to 7.4 with NaOH). Fluorescence images of the cells were acquired through the Eclipse Ti-E microscope (Nikon) with ORCA-R2 cooled CCD camera (Hamamatsu Photonics) and analyzed with Metafluor image acquisition software (Molecular Devices). The 488:405-nm ratio images were obtained on a pixel-by-pixel basis. 3D images are shown as one section from midstructure. For the measurement of [H2O2]i levels in MCF-10A cells cultured in suspension, cell clumps were dissociated with trypsin and stained with 10 μM peroxy green-1 for 30 min at 37° C. Cells were then subjected to flow cytometric analysis (FACSCalibur; BD Biosciences). ROS levels determined by flow cytometry are reported as mean fluorescence intensity expressed in arbitrary units. Hyper-2 ratio images are representative from two independent experiments and averaged Hyper-2 ratio represents mean±SD from the sum of two independent experiments.

TRPA1 [1] = molecular target: T1, TRPA1 (Homo sapiens, UniProt O75762); assay: Ca2+ responses to carboplatin in HCC1569 cells; settings: 10 μM AP-18 or 300 nM A-967079
T1 construct: endogenous in cells; host or cells: HCC1569 breast cancer cells (2D culture or 3D spheroids; shGFP or shTRPA1 transduced)
T1 sequence (O75762 whole entry): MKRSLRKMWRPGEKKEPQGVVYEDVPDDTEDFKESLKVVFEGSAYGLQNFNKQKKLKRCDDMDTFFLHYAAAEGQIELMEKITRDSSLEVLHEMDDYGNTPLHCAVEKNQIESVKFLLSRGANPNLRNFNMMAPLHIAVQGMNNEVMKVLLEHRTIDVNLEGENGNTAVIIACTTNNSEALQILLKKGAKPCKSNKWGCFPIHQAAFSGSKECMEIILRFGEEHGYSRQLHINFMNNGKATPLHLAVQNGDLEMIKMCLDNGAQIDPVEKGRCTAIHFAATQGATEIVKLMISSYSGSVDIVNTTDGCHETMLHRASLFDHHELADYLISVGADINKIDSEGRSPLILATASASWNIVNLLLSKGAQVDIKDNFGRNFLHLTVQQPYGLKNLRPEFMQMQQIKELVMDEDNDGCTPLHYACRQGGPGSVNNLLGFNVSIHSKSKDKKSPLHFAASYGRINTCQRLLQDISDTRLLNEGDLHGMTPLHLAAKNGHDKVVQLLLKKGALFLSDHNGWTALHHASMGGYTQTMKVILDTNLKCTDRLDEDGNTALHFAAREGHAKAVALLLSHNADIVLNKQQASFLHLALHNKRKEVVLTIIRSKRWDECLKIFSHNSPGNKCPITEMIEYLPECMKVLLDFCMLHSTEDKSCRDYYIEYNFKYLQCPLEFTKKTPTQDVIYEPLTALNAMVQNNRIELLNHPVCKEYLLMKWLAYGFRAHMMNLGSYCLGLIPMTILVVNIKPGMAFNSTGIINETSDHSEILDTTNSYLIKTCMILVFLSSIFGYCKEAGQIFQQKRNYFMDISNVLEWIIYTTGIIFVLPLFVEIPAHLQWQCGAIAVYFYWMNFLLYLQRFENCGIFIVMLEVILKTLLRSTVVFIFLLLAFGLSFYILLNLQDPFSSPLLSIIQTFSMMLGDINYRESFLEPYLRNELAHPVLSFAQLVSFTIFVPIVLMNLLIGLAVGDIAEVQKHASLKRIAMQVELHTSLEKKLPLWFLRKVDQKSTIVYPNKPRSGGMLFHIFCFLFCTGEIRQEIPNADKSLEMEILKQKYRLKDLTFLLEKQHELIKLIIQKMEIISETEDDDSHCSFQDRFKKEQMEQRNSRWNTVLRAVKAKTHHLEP
Protocol: (§1) For the measurement of [Ca^2+]i levels in cells cultured in 2D or 3D (in Matrigel), cells were stained with 3.5 μM fura-2-AM (Life Technology) in the presence of 2.5 mM probenecid (Sigma) and 0.02% Pluronic F-127 (Sigma) for 45 min at 37° C. The fura-2 fluorescence was measured in HBS solution containing 1.25 mM probenecid at 37° C. Fluorescence images of the cells were acquired through the Eclipse Ti-E microscope with ORCA-R2 cooled CCD camera and analyzed with Metafluor. The 340:380-nm ratio images were obtained on a pixel-by-pixel basis and were converted to Ca^2+ concentrations by in vivo calibration using 5 μM ionomycin as described previously (Nishida et al., Biochem. Biophys. Res. Commun., 262:350-354, 1999). 3D images are shown as one section from midstructure. For the measurement of [Ca^2+]i levels in cells cultured in suspension, cell clumps were dissociated with trypsin and [Ca^2+]i levels were determined by using Fluo-4 NW Calcium Assay Kit (Molecular Probes). Cells were stained with Fluo-4 according to the manufacturer's instructions and subjected to flow cytometric analysis (FACSCalibur) using HBS as sheath fluid. [Ca^2+]i levels determined by flow cytometry are reported as mean fluorescence intensity expressed in arbitrary units. Time courses of [Ca^2+]i rises in 2D culture are representative of three independent experiments and averaged Δ[Ca^2+]i represents mean±SEM from the sum of three independent experiments. Fura-2 ratio images in 3D culture are representative of two independent experiments and averaged [Ca^2+]i in 3D culture represents mean±SEM from the sum of two independent experiments.

BT-549 = assay: Live cell number under carboplatin in BT-549 cells; settings: 10 μM AP-18; carboplatin 72 h; BT-549, very low TRPA1
Protocol: (§2) For the measurements of live cell number and cell death under treatment with H2O2, diamide, or chemotherapies, cells were cultured on 96-well plates in the presence or absence of these drugs for indicated times and stained with 5 μM bisBenzimide H 33342 trihydrochloride (Hoechst; Sigma) and 5 μM propidium iodide (PI; Sigma) for 1 h at 37° C. Hoechst- and/or PI-positive cells were counted using a laser scanning cytometer, Acumen Cellista (TTPLabTech). Apoptotic cells induced by H2O2 treatment were measured by staining with Annexin V-Alexa Fluor® 488 conjugate (Life Technologies) and PI in Ca^2+-containing solution (10 mM HEPES pH 7.4, 140 mM NaCl; 2.5 mM CaCl2), followed by flow cytometric measurement of fluorescence using a FACSCalibur. Flow cytometry plots are representative of three independent experiments. […] Viable cells were counted using the Countless Automated Cell Counters (Thermo Fisher Scientific). […] Hoechst- and/or PI-positive areas were measured using Acumen Cellista. Apoptotic cells induced by detachment were measured by staining with 5 μM Hoechst and 5 μM of CellEvent™ Caspase-3/7 Green Detection Reagent (Thermo Fisher Scientific) for 1 h at 37° C. without enzymatic dissociation of cell clumps. Hoechst- and/or CellEvent™ Caspase-3/7 Green Detection Reagent-positive areas were measured using Acumen Cellista. […]

TRPA1 [2] = molecular target: T1, TRPA1; assay: [Ca2+]i by fura-2 in HCC1569 spheroids; settings: AP-18, 300 nM A-967079 or 5 mM NAC
Protocol: as §1

MPNST cells = assay: H2O2- and carboplatin-induced cytotoxicity in MPNST cells; settings: TRPA1 expression-dependent
Protocol: as §2

HCC1569 cells = assay: Live cell number and cell death under carboplatin in HCC1569 cells; settings: carboplatin 72 h
Protocol: For the measurements of live cell number and cell death under treatment with H2O2, diamide, or chemotherapies, cells were cultured on 96-well plates in the presence or absence of these drugs for indicated times and stained with 5 μM bisBenzimide H 33342 trihydrochloride (Hoechst; Sigma) and 5 μM propidium iodide (PI; Sigma) for 1 h at 37° C. Hoechst- and/or PI-positive cells were counted using a laser scanning cytometer, Acumen Cellista (TTPLabTech). Apoptotic cells induced by H2O2 treatment were measured by staining with Annexin V-Alexa Fluor® 488 conjugate (Life Technologies) and PI in Ca^2+-containing solution (10 mM HEPES pH 7.4, 140 mM NaCl; 2.5 mM CaCl2), followed by flow cytometric measurement of fluorescence using a FACSCalibur. Flow cytometry plots are representative of three independent experiments. For the counting of viable cells cultured in suspension, cell clumps were dissociated with trypsin and stained with trypan blue. Viable cells were counted using the Countless Automated Cell Counters (Thermo Fisher Scientific). For the measurement of percentage of dead cells cultured in suspension, cells were cultured on poly HEMA-coated 96-well plates and stained with 5 μM Hoechst and 5 μM PI for 1 h at 37° C. without enzymatic dissociation of cell clumps. Hoechst- and/or PI-positive areas were measured using Acumen Cellista. Apoptotic cells induced by detachment were measured by staining with 5 μM Hoechst and 5 μM of CellEvent™ Caspase-3/7 Green Detection Reagent (Thermo Fisher Scientific) for 1 h at 37° C. without enzymatic dissociation of cell clumps. Hoechst- and/or CellEvent™ Caspase-3/7 Green Detection Reagent-positive areas were measured using Acumen Cellista. For the cell cycle analysis, enzymatically dissociated cells were fixed with ice-cold 70% EtOH for at least 30 min at 4° C., washed three times with PBS at 4° C., resuspended in PBS, treated with 100 μg/ml RNase A (Sigma), and stained with 50 μg/ml PI. The stained samples were subjected to flow cytometric analysis (FACSCalibur).

HCC1500 = assay: Live cell number under carboplatin in HCC1500 cells; settings: 10 μM AP-18; carboplatin 72 h; HCC1500, very low TRPA1
Protocol: as §2

AP-18
increase in [H2O2]i (Hyper-2) in inner region of spheroids (HCC1569 spheroids): unaffected
[Ca2+]i rises upon carboplatin treatment (TRPA1 [1]): significantly suppressed
oscillatory Ca2+ responses upon carboplatin treatment (TRPA1 [1]): significantly suppressed
sensitization to carboplatin (BT-549): minimal to no effect
elevated [Ca2+]i of inner cells of spheroids (TRPA1 [2]): suppressed
sensitization to carboplatin-induced cytotoxicity (MPNST cells; 10 μM AP-18, carboplatin 72 h): sensitized
sensitization to H2O2-induced cytotoxicity (MPNST cells): sensitized
cell death in response to carboplatin treatment (HCC1569 cells): enhanced
live cell number in response to carboplatin treatment (HCC1569 cells): substantially suppressed
sensitization to carboplatin (HCC1500): minimal to no effect
